We go through two compounds from patent publication US5929254A, “1,2-dioxetane derivatives” (Fujirebio Inc., priority 1996, dated 1999).

A short description of series [1]: Chemiluminescence on addition to tetrabutylammonium fluoride in DMSO, measured with a fluorescence analyzer. Type of series: physicochemical. The conditions noted are these: tetrabutylammonium fluoride 1.5×10^-1 M, 25° C. How it is done: 1 ml of a […] dimethylsulfoxide(DMSO) solution of 4-(4-acetyl-3-hydroxyphenyl)-3,3-(bicyclo[3.3.1]nonan-3,7-diyl)-4-methoxy- 1,2-dioxethane (Compound [10]) synthesized in Example 2 was added to 2 ml of 1.5×10^-1 M DMSO solution of tetrabutylammonium fluoride at 25° C.
The luminescence at the moment of the addition of the compound [10] to the DMSO solution of tetrabutylammonium fluoride was measured with a fluorescence analyzer.
1 ml of a 2.94×10^-3 M dimethylsulfoxide (DMSO) solution of 3,3-(bicyclo[3.3.1]nonan-3,7-diyl)-4-(3-hydroxyphenyl)-4-methoxy-1,2-dioxetane (Comparative Compound) was added to 2 ml of 1.5×10^-1 M DMSO solution of tetrabutylammonium fluoride at 25° C.
The luminescence at the moment of the addition of the comparative compound to the DMSO solution of tetrabutylammonium fluoride was measured with a fluorescence analyzer in the same manner as in Example 1.

The nature of series [2]: Chemiluminescence on addition to cesium hydroxide in methanol or aqueous methanol, measured with a fluorescence analyzer. The conditions noted are these: 25° C. Type of series: physicochemical. The procedure: 1 ml of a 3.12×10^-3 M methanol solution of 4-(4-acetyl-3-hydroxyphenyl)-3,3-(bicyclo[3.3.1]nonan-3,7-diyl)-4-methoxy- 1,2-dioxethane (Compound [10]) synthesized in Example 2 was added to 2 ml of a 1.5×10^-1 M methanol solution of cesium hydroxide at 25° C.
The luminescence at the moment of the addition of the compound [10] to the methanol solution of cesium hydroxide was measured with a fluorescence analyzer in the same manner as in Test Example 1.
The measurement of the luminescence of the compound [10] in Test Example 2 was repeated in the same manner as in Test Example 2 except that the methanol used as the solvent for cesium hydroxide employed in Test Example 2 was replaced by an aqueous solution of methanol (water: 50%) without changing the concentration of cesium in the diluted methanol solution.
Thus, the luminescence at the moment of the addition of the compound [10] to the diluted methanol solution of cesium hydroxide was measured with a fluorescence analyzer in the same manner as in Test Example 1.
The measurement of the luminescence of the compound [10] in Test Example 2 was repeated in the same manner as in Test Example 2 except that the methanol used as the solvent for cesium hydroxide employed in Test Example 2 was replaced by an aqueous solution of methanol (water: 97%) without changing the concentration of cesium in the diluted methanol solution.
1 ml of a 3.12×10^-3 M methanol solution of 3,3-(bicyclo[3.3.1]nonan-3,7-diyl)-4-(3-hydroxyphenyl)-4-methoxy-1,2-dioxetane (Comparative Compound) was added to 2 ml of a 1.5×10^-1 M methanol solution of cesium hydroxide at 25° C.
It was tried to measure the luminescence at the moment of the addition of the comparative compound to the methanol solution of cesium hydroxide with a fluorescence analyzer in the same manner as in Test Example 1.
The measurement of he luminescence of the comparative compound in Comparative Test Example 2 was repeated in the same manner as in Comparative Test Example 2 except that the methanol used as the solvent for cesium hydroxide employed in Comparative Test Example 2 was replaced by an aqueous solution of methanol (water: 50%) without changing the concentration of cesium in the diluted methanol solution.
Thus, the luminescence at the moment of the addition of the comparative compound to the diluted methanol solution of cesium hydroxide was measured with a fluorescence analyzer in the same manner as in Test Example 1.
The measurement of the luminescence of the comparative compound in Comparative Test Example 2 was repeated in the same manner as in Comparative Test Example 2 except that the methanol used as the solvent for cesium hydroxide employed in Comparative Test Example 2 was replaced by an aqueous solution of methanol (water: 97%) without changing the concentration of cesium in the diluted methanol solution.

[3] abbreviates: Aqueous solution of methanol (water: 50%), cesium hydroxide.
[4] abbreviates: Aqueous solution of methanol (water: 97%), cesium hydroxide.
[5] abbreviates: methanol solution of cesium hydroxide, in words.
[6] abbreviates: Methanol, cesium hydroxide 1.5×10^-1 M, compound 3.12×10^-3 M.

Each structure is given as a SMILES string.

Turning to `COC1(c2cccc(O)c2)OOC12C1CC3CC(C1)CC2C3` (centres unmarked) [Comparative Compound, 3,3-(bicyclo[3.3.1]nonan-3,7-diyl)-4-(3-hydroxyphenyl)-4-methoxy-1,2-dioxetane, reference compound], in series [1], the “Half-life (sec) of Luminescence” value was 5.1 s, the “Luminescence Quantum Efficiency” value worked out at 0.22 and the “λmax (nm)” value is recorded as 465 nm. Moreover, in series [2] (setting [3]), the “Half-life (sec) of Luminescence” value was determined as 452 s, the “Luminescence Quantum Efficiency” value is on record as 3.9 × 10^-5 and the “λmax (nm)” value amounted to 472 nm. Further, in series [2] (setting [4]), the “Half-life (sec) of Luminescence” value is 173 s, the “Luminescence Quantum Efficiency” value is 6.7 × 10^-6 and the “λmax (nm)” value was 474 nm. Also, in series [2] (setting [5]), the “half-life of the luminescence” value is recorded as “extremely long” and the “intensity of the luminescence” value is “extremely small”.

In the case of `COC1(c2ccc(C(C)=O)c(O)c2)OOC12C1CC3CC(C1)CC2C3` (centres unmarked) [Compound [10], 4-(4-acetyl-3-hydroxyphenyl)-3,3-(bicyclo[3.3.1]nonan-3,7-diyl)-4-methoxy-1,2-dioxethane], the “Half-life (sec) of Luminescence” value in series [1] worked out at 23000 s; in series [2] (setting [3]), 29000 s; in series [2] (setting [4]), 8200 s; in series [2] (setting [6]), 120000 s. The “Luminescence Quantum Efficiency” value in series [1] turned out to be 0.13; in series [2] (setting [3]) it was 0.023; in series [2] (setting [4]), 0.0064; in series [2] (setting [6]), 0.030. Besides, the “λmax (nm)” value in series [1] was found to be 486 nm; in series [2] (setting [3]), 496 nm; in series [2] (setting [4]) it was 496 nm; in series [2] (setting [6]) it was 493 nm.
